In test [1] the target is T1, B2 bradykinin receptor (Homo sapiens) (UniProt P30411).
T1 sequence (whole entry): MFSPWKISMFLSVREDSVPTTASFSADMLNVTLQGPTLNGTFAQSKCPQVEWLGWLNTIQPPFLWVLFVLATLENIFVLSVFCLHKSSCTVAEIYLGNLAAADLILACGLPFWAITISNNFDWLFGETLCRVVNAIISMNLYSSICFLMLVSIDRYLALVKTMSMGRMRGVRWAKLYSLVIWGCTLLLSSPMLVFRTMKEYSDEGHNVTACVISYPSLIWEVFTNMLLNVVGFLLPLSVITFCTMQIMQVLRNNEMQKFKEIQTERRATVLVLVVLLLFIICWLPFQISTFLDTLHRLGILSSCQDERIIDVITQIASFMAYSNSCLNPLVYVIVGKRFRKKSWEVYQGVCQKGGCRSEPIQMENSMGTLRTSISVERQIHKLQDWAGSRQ
As to the kind of experiment: Tested for percent inhibition of binding affinity against Bradykinin receptor B2 at 10 uM concentration.

The target of test [2] is T2, B2 bradykinin receptor (Homo sapiens, UniProt P30411).
T2 sequence (P30411 whole entry): T1 sequence (whole entry)
As to the kind of experiment: Tested for binding affinity against human IMR-90 Bradykinin receptor B2.

From ChEMBL document CHEMBL1128132, “Ace inhibitors as a template for the design of bradykinin B2 receptor antagonists” (Bioorg Med Chem Lett, 1995) come the findings set out here.

In turn, `CCCC[PH](CCCC)(CCCC)Cc1ccc(NC(=O)C2Cc3ccccc3CN2C(=O)[C@H](CCc2ccccc2)N/C(=N/C2CCCCC2)NC2CCCCC2)cc1` (single isomer, unassigned; diastereomer 2) returned an inhibition in test [1] of more than 50%.
On the same count and under the same terms, the figure for `CCCC[PH](CCCC)(CCCC)Cc1ccc(NC(=O)C2Cc3ccccc3CN2C(=O)CN)cc1` (stereo not drawn) is 36%.
`CCCC[P+](CCCC)(CCCC)Cc1ccc(NC(=O)C2Cc3ccccc3CN2C(=O)C(CCc2ccccc2)NC(=O)OC(C)(C)C)cc1` (stereo not drawn): the affinity in test [2], expressed as Ki, was 8 µM. In test [1], the inhibition is more than 50%.
In test [1], `O=C(Nc1ccc(CN/C(=N/C2CCCCC2)NC2CCCCC2)cc1)C1Cc2ccccc2CN1C(=O)CN/C(=N/C1CCCCC1)NC1CCCCC1` (stereo not drawn) yielded an inhibition of 12%.
The same measure, in the same setting: to `CCCC[PH](CCCC)(CCCC)Cc1ccc(NC(=O)C2Cc3ccccc3CN2C(=O)[C@@H](N)CCc2ccccc2)cc1` (single isomer, unassigned; diastereomer 2) belongs 26%.
With `CCCC[PH](CCCC)(CCCC)Cc1ccc(NC(=O)C2Cc3ccccc3CN2C(=O)[C@@H](N)CCc2ccccc2)cc1` (single isomer, unassigned; diastereomer 1), the inhibition in test [1] came to 26%.
Compound `CCCC[PH](CCCC)(CCCC)Cc1ccc(NC(=O)C2Cc3ccccc3CN2C(=O)[C@H](CCc2ccccc2)N/C(=N/C2CCCCC2)NC2CCCCC2)cc1` (single isomer, unassigned; diastereomer 1) showed an inhibition in test [1] of more than 50%.
Regarding `CCCC[P+](CCCC)(CCCC)Cc1ccc(NC(=O)C2Cc3ccccc3CN2C(=O)CCCc2ccccc2)cc1` (stereo not drawn), in test [2], the inhibition constant (Ki) was determined as 10 µM. The inhibition in test [1] is more than 50%.
The compound `CCCC[PH](CCCC)(CCCC)Cc1ccc(NC(=O)C2Cc3ccccc3CN2/C(=N/C2CCCCC2)NC2CCCCC2)cc1` (stereo not drawn) showed an inhibition in test [1] of 34%.
Regarding `CCCC[P+](CCCC)(CCCC)Cc1ccc(NC(=O)C2Cc3ccccc3CN2C(=O)CNC(=O)OC(C)(C)C)cc1` (stereo not drawn), the inhibition in test [1] turned out to be 18%.
The same measure, in the same setting: the figure for `CCCC[PH](CCCC)(CCCC)Cc1ccc(NC(=O)C2Cc3ccccc3CN2C(=O)CN/C(=N/C2CCCCC2)NC2CCCCC2)cc1` (stereo not drawn) is 33%.
